The values below come from paper PMC4947907, “Lupin Peptides Modulate the Protein-Protein Interaction of PCSK9 with the Low Density Lipoprotein Receptor in HepG2 Cells” (Scientific Reports, 2016).

No end group written: not given here.

Data set [1] concerns the target T1, PCSK9-LDLR interaction (recombinant His-tagged PCSK9 / recombinant LDLR-AB domain) (Homo sapiens, UniProt Q8NBP7).
T1 construct: purchased CycLex Co., Nagano, Japan
As to the kind of experiment: In vitro PCSK9-LDLR binding assay (solid-phase, CycLex). The settings on record: synthetic peptide, absorbance 450 nm versus vehicle, average ± SEM of three independent experiments in duplicate.
Method: In vitro experiments were performed using a solid-phase binding assay between recombinant His-tagged PCSK9 and recombinant LDLR-AB domain.
The commercial assay provides a plate pre-coated with a recombinant LDLR-AB domain, which is the PCSK9 binding site. For screening direct inhibitors of the PCSK9-LDLR interaction, lupin peptides were added to the proper amount of His-tagged PCSK9 in each well coated with LDLR-AB domain. Biotinylated anti-His-tag monoclonal antibody specifically reacted with recombinant His-tagged PCSK9 trapped with LDLR-AB domain immobilized on the microplate surface. The inhibitory effects were analyzed measuring the amount of His-tagged PCSK9 on the well. In particular, the inhibitory effect, calculated as % PCSK9-LDLR binding inhibition, determines a reduction of absorbance measured at 450 nm using the Synergy H1 fluorescent plate reader from Biotek versus vehicle control. Data points represent averages ± SEM of three independent experiments in duplicate. ***p < 0.0001 **p < 0.001 versus C.
The employed assay provides a plate pre-coated with a recombinant LDLR-AB domain, which is the PCSK9 binding site. For screening, the peptides were added to proper amount of His-tagged PCSK9 in each well coated with LDLR-AB domain. Biotinylated anti-His-tag monoclonal antibody specifically reacts with recombinant His-tagged PCSK9 trapped with LDLR-AB domain immobilized on the microplate surface. […] Data points represent averages ± SEM of three independent experiments in duplicate. *p < 0.05 **P < 0.001 versus C.
P-tot peptides (1.0 and 2.5 μg/μl), T-tot peptides (0.5 and 1.0 μg/μl), P-abs (12.5 ng/μl) and T-abs peptides (16.0 ng/μl) were tested using the in vitro PCSK9-LDLR binding assay (CycLex Co., Nagano, Japan) following the manufacture instructions. […] The reaction was stopped with 2.0 N sulfuric acid and the absorbance at 450 nm was measured using the Synergy H1 fluorescent plate reader (Biotek, Bad Friedrichshall, Germany).
The absorbance at 450 nm was measured using the Synergy H1 fluorescent plate reader (Biotek, Bad Friedrichshall, Germany).

The subject of the next data set is PCSK9-LDLR interaction. The settings on record: ref 23 (Zhang and coworkers); read-out: IC50, PCSK9-LDLR inhibition; cited from earlier work. An excerpt: P5 is thus one of the shortest peptides ever described in literature endowed with this specific activity.
The next data set concerns Caco-2 cells. As to the kind of experiment: Absorption in differentiated Caco-2 cells grown in two-compartment system; peptides identified/quantified in basolateral solution. The class given is in vitro ADME, human. The following applies: Caco-2 AP to BL, 4 h. An excerpt: Lupin protein consumption provides some health benefits in the area of hypercholesterolemia prevention. Studies in animal models[31][32] and in the clinics[33][34] have shown that the protein itself is a main hypocholesterolemic agent. […] Another investigation in human Caco-2 cells has provided evidence that at least some of these peptic and tryptic peptides may be absorbed in the small intestine, since they are transferred from the apical (AP) to the basolateral (BL) compartment in differentiated Caco-2 cells grown in a two-compartment system.
Precisely, Caco-2 cells have been incubated for 4 h in the AP chamber with 500 μl of a 1.0 μg/μl solution of P-tot or T-tot peptides and, at the end of treatment, BL solutions (700 μl) have been collected and absorbed peptic and tryptic peptides identified by HPLC-Chip ESI-MS/MS[37]. The BL solutions were then dried and diluted to 100 μl to obtain the solutions P-abs and T-abs at the concentration of 0.25 and 0.32 μg/μl, respectively. Both solutions were used for the present experiments.
The peptic (P-tot) and tryptic (T-tot) hydrolyzates from lupin protein are the same used in a previous paper, in which their capability to modulate cholesterol metabolism in HepG2 cells was investigated. […]

Data set [2] concerns the target recombinant His-tagged PCSK9 wild type (proprotein convertase subtilisin/kexin type 9) (human, UniProt Q8NBP7 153-692, Limits of the kit protein are not printed. Taken as secreted, autocleaved PCSK9: prodomain 31-152 non-covalently bound to mature chain 153-692, from UniProt features. His tag omitted.). As to the kind of experiment: ELISA; CycLex in vitro PCSK9-LDLR binding assay: plate pre-coated with LDLR-AB domain; His-tagged PCSK9 added with vehicle or synthetic peptides T9 (32-320 uM) or P5 (0.001-100 uM), 2 h at room temperature; bound PCSK9 detected with biotinylated anti-His-tag antibody, absorbance at 450 nm. The following applies: both partners purified.

T1 sequence (Q8NBP7 153-692): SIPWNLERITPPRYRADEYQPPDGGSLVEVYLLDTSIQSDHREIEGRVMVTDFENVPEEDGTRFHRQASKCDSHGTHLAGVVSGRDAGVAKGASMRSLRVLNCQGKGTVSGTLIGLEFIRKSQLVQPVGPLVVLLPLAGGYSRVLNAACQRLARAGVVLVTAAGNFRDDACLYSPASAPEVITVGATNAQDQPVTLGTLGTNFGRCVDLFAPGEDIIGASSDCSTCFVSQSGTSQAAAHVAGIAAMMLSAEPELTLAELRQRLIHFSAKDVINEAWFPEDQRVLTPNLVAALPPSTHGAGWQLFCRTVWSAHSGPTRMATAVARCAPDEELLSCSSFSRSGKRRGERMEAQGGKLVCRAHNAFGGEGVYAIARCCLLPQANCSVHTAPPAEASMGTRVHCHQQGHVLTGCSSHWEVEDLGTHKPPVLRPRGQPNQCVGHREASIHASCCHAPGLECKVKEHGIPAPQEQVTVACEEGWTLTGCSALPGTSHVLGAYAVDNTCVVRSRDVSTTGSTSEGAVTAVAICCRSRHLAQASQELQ
T1 sequence (Q8NBP7 31-152 partner limits assumed): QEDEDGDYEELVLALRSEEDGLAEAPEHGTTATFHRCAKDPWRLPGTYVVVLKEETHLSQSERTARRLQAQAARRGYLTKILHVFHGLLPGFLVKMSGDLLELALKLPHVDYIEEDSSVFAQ
recombinant His-tagged PCSK9 wild type (proprotein convertase subtilisin/kexin type 9), sequence (Q8NBP7 153-692): as the sequence (Q8NBP7 153-692) above

The inhibition is the percentage by which the read-out fell short of the control. Turning to `CC[C@H](C)[C@H](NC(=O)[C@@H](NC(=O)CNC(=O)[C@H](CCC(=O)O)NC(=O)[C@H](CC(=O)O)NC(=O)[C@H](CCC(N)=O)NC(=O)[C@H](Cc1c[nH]cn1)NC(=O)[C@H](CO)NC(=O)[C@H](CCC(N)=O)NC(=O)[C@H](CCC(=O)O)NC(=O)[C@H](CCC(N)=O)NC(=O)CN)C(C)C)C(=O)N[C@H](C(=O)N[C@@H](CCCNC(=N)N)C(=O)O)C(C)C` [Peptide T9], in data set [1] (32 μM), the inhibition at 32 µM was 19 ± 8.47%. In addition, the inhibition at 160 µM in data set [1] (160 μM) worked out at 33 ± 5.33%. Moreover, the inhibition at 320 µM in data set [1] ([…] μM) is 53 ± 1.02%.

A word on the IC50: it is the midpoint of a concentration-inhibition curve. On to Ac-TVFTSWEEYLDWV-amide [Pep2-8], for which, in the data set on PCSK9-LDLR interaction, the concentration for half-maximal inhibition (IC50) was 810 ± 80 nM.

As to LILPKHSDAD [Peptide P5], the “P5 concentration in the P-abs solution” value with Caco-2 cells (AP 500 μl of 1.0 μg/μl P-tot, BL solution (700 μl) dried and diluted to 100 μl, HPLC-MS/MS m/z 554.8 → 770.0, external calibration with synthetic standard, three injections) was found to be 28.64 ± 0.43 ng/µL. In the data set on Caco-2 cells (P-abs sample, HPLC-MS/MS), the “P5 share of total peptic peptides absorbed by Caco-2 cells” value worked out at 11.5%.

B1: P5 (peptide)
peptide: LILPKHSDAD
notes: peptic peptide of Lupinus albus β2-conglutin (beta-conglutin precursor); source: synthetic peptide (PRIMM, Milan), >95% pure by HPLC
Turning to B1, in data set [2], the IC50 turned out to be 1600 nM.
